# US5691351A, “Bis-(Heteroarylmethoxyphenyl)cycloalkyl carboxylates as inhibitors of leukotriene biosynthesis” (Abbott Laboratories, priority 1996, dated 1997)
# Counter-ions that a name gives are not always drawn. Like-named read-outs stand apart in the source and are kept apart here.
# Assays:
# [1] = system: Calcium Ionophore Stimulated Leukotriene Formation in Human Polymorphonuclear Leukocytes; assay: Calcium ionophore-induced LTB4 formation in human polymorphonuclear leukocytes (Lipoxygenase Inhibition Determination); assay type: cell-based; settings: human PMNL, 15 min preincubation, calcium ionophore 8.3 μM, 10 min at 37° C., LTB4 by enzyme-linked immunoassay or HPLC, read-out: Inhibitory Potencies Against Calcium Ionophore Stimulated Leukotriene Formation in Human Polymorphonuclear Leukocytes, IC50
# Experimental: Leukotriene biosynthesis inhibitory activity of representative compounds of the present invention was evaluated in an assay involving calcium ionophore-induced LTB4 expressed in human polymorphornuclear leukocytes (PMNL). Human PMNL isolated from heparinized (20 USP units/mL) venous blood (25 mL) obtained from healthy volunteers was layered over an equal volume of Ficoll-Hypaque Mono-Poly Resolving Medium (ICN Flow, Costa Mesa, Calif.) and centrifugated at 400×g for 40 min at 20° C. The PMNL was collected, erythrocytes lysed and washed 2× and suspended at 1.0×10^7 cells/mL in Earle's balanced salt solution with 17 mM Earle's HEPES. […] Incubations were stopped with the addition of two volumes of ice-cold methanol followed by centrifuging the cell suspensions at 4° C. for 10 min at 450×g. The mount of LTB4 in the methanol extract was analyzed by enzyme-linked immunoassay or by HPLC analysis.
# leukotriene synthesis = settings: Bioorganic and Medicinal Chemistry Letters, 1: 645-648 (1991); cited from earlier work
SMILES,IC50 [1] [nM],further results
"O=C(O)C1CCC(c2ccc(OCc3ccc4ccccc4n3)cc2)(c2ccc(OCc3ccc4ccccc4n3)cc2)CC1 [Example 1, 4,4-bis-(4(2-quinolylmethoxy)phenyl)cyclohexane carboxylic acid]",59,
"O=C(O)C1CCC(c2ccc(OCc3ccc4ccccc4n3)cc2)(c2ccc(OCc3ccc4ccccc4n3)cc2)CC1 [Example 2, 4,4-bis-(4-(2-quinolylmethoxy)phenyl)cyclohexane carboxylic acid sodium salt]",,IC50 ([1]; sodium salt): 47 nM
"CC(=NOC1CCC(c2ccc(OCc3ccc4ccccc4n3)cc2)(c2ccc(OCc3ccc4ccccc4n3)cc2)CC1)C(=O)O [Example 5, sodium salt]",37,
"O=C(O)CSC(CCCc1ccc(Cl)cc1)c1ccc(OCc2ccc3ccccc3n2)cc1 [L-674,636, {[4-(4-chlorophenyl)-1-[4-(2-quinolylmethoxy)phenyl]-butyl]thio}acetic acid]",,leukotriene synthesis inhibitor (in words) (leukotriene synthesis): potent and orally active leukotriene synthesis inhibitor
